Earlier results as cited in patent US6448442B1, “Contrast media” (Amersham Health AS, priority 1999, dated 2002).

Conditions: 350 mgI/ml, 20° C., data from literature; cited from earlier work

For CN(C(=O)CO)c1c(I)c(C(=O)NCC(O)CO)c(I)c(C(=O)NCC(O)CO)c1I (stereo not shown) [Iomeprol], the Viscosity is given as 15.4 mPas.
